# Test results published in ChEMBL document CHEMBL4422618, “Translational impact of novel widely pharmacological characterized mofezolac-derived COX-1 inhibitors combined with bortezomib on human multiple myeloma cell lines viability” (Eur J Med Chem, 2019).
# The source made the active and inactive calls. The calls are words filed in the database; no cut-off is given here.
# Legend:
# RPMI-8226 [1] = experiment: Induction of apoptosis in human RPMI8226 cells assessed as late apoptotic cells at 42 nM after 48 hrs in presence of bortezomib by Annexin-V/propidium iodide staining based flow cytometric method (reference value: 0.21%); assay type: functional
# NCI-H929 [2] = experiment: Induction of apoptosis in human NCI-H929 cells assessed as late apoptotic cells at 42 nM after 48 hrs in presence of bortezomib by Annexin-V/propidium iodide staining based flow cytometric method (reference value: 0.23%); assay type: functional
# NCI-H929 [3] = experiment: Induction of apoptosis in human NCI-H929 cells assessed as early apoptotic cells at 42 nM after 48 hrs by Annexin-V/propidium iodide staining based flow cytometric method (reference value: 17.1%); assay type: functional
# RPMI-8226 [4] = experiment: Cell cycle arrest in human RPMI8226 cells assessed as accumulation at G0/G1 phase at 42 nM after 48 hrs by propidium iodide/RNase staining based flow cytometric method; assay type: functional
# NCI-H929 [5] = experiment: Induction of apoptosis in human NCI-H929 cells assessed as viable cells at 42 nM after 48 hrs by Annexin-V/propidium iodide staining based flow cytometric method (reference value: 82.6%); assay type: functional; conditions: NCI-H929, 48 h, read-out: Activity
# NCI-H929 [6] = experiment: Potentiation of bortezomib-induced cytotoxicity against human NCI-H929 cells assessed as reduction in cell viability at 42 nM after 48 hrs in presence of bortezomib by CCK8 assay; assay type: functional, cell-based
# [7] = target: T1, Prostaglandin G/H synthase 1 (Ovis aries, UniProt P05979); experiment: Inhibition of ovine COX1 using arachidonic acid as substrate by colorimetric assay
# T1 sequence (P05979 whole entry): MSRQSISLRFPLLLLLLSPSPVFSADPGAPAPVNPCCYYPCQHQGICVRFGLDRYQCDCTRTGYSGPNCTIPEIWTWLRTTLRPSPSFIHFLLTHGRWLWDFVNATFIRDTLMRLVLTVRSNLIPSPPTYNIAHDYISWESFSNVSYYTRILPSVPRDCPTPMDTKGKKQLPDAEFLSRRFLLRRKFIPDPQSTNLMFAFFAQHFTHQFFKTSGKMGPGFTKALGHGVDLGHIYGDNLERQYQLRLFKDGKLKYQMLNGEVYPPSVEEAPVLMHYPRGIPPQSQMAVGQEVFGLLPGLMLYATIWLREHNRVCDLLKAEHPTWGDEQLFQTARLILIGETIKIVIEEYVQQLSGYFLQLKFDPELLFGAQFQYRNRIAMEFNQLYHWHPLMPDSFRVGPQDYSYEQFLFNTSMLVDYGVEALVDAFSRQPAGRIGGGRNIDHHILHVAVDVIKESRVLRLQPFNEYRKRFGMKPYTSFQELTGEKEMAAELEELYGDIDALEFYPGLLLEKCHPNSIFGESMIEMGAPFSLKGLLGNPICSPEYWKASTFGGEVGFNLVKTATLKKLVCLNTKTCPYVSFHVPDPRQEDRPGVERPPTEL
# RPMI-8226 [8] = experiment: Cytotoxicity against human RPMI8226 cells assessed as reduction in cell viability at 1.7 uM after 48 hrs by CCK8 assay relative to control; assay type: functional
# [9] = Hemolytic activity in erythrocytes (unknown origin) at 100 uM after 3 hrs by spectrophotometric analysis; assay type: ADME, cell-based, Erythrocyte; conditions: read-out: Activity
# RPMI-8226 [10] = experiment: Potentiation of bortezomib-induced cytotoxicity against human RPMI8226 cells assessed as reduction in cell viability at 42 nM after 48 hrs in presence of bortezomib by CCK8 assay; assay type: functional
# NCI-H929 [11] = experiment: Induction of apoptosis in human NCI-H929 cells assessed as viable cells at 42 nM after 48 hrs in presence of bortezomib by Annexin-V/propidium iodide staining based flow cytometric method (reference value: 82.6%); assay type: functional; conditions: NCI-H929, 48 h, read-out: Activity
# [12] = target: T2, Prostaglandin G/H synthase 2 (Homo sapiens, UniProt P35354); experiment: Inhibition of human COX2 using arachidonic acid as substrate by colorimetric assay
# T2 sequence (P35354 whole entry): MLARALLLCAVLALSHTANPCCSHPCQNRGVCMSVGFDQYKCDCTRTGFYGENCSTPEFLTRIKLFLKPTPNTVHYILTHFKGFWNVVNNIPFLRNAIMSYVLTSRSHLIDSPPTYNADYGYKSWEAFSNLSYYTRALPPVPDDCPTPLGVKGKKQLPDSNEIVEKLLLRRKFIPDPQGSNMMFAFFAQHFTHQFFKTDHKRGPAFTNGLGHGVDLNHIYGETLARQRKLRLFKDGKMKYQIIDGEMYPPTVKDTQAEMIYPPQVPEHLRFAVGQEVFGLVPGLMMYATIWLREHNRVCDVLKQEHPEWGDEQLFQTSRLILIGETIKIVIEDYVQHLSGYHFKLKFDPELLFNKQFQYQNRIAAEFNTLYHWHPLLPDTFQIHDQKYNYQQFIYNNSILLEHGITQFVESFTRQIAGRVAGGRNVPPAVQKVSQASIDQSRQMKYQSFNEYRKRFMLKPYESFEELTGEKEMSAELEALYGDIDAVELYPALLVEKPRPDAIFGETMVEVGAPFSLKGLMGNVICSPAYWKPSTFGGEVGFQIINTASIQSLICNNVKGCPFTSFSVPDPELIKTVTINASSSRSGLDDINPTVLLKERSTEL
# NCI-H929 [13] = experiment: Cell cycle arrest in human NCI-H929 cells assessed as accumulation at G0/G1 phase at 42 nM in presence of bortezomib after 48 hrs by propidium iodide/RNase staining based flow cytometric method relative to bortezomib alone; assay type: functional
# NCI-H929 [14] = experiment: Cell cycle arrest in human NCI-H929 cells assessed as accumulation at S phase at 42 nM in presence of bortezomib after 48 hrs by propidium iodide/RNase staining based flow cytometric method relative to bortezomib alone; assay type: functional
# Platelet = experiment: Antiplatelet activity in human platelet rich plasma assessed as inhibition of arachidonic acid-induced platelet aggregation preincubated for 2 mins followed by arachidonic acid addition by turbidimetric method; assay type: functional, cell-based
# NCI-H929 [15] = experiment: Induction of apoptosis in human NCI-H929 cells assessed as necrotic cells at 42 nM after 48 hrs by Annexin-V/propidium iodide staining based flow cytometric method (reference value: 0.0034%); assay type: functional
# RPMI-8226 [16] = experiment: Cell cycle arrest in human RPMI8226 cells assessed as accumulation at S phase at 42 nM in presence of bortezomib after 48 hrs by propidium iodide/RNase staining based flow cytometric method relative to bortezomib; assay type: functional
# RPMI-8226 [17] = experiment: Induction of apoptosis in human RPMI8226 cells assessed as necrotic cells at 42 nM after 48 hrs in presence of bortezomib by Annexin-V/propidium iodide staining based flow cytometric method (reference value: 0.090%); assay type: functional
# [18] = Genotoxicity in Escherichia coli PQ37 at 500 uM after overnight incubation by SOS chromotest; assay type: toxicity
# RPMI-8226 [19] = experiment: Induction of apoptosis in human RPMI8226 cells assessed as early apoptotic cells at 42 nM after 48 hrs in presence of bortezomib by Annexin-V/propidium iodide staining based flow cytometric method (reference value: 1.05%); assay type: functional
# [20] = target: T3, Prostaglandin G/H synthase 1 (Ovis aries) (UniProt P05979); experiment: Inhibition of ovine COX1 at 50 uM using arachidonic acid as substrate by colorimetric assay relative to control
# T3 sequence (whole entry): T1 sequence (P05979 whole entry)
# [21] = Genotoxicity in Escherichia coli PQ35 at 500 uM after overnight incubation by SOS chromotest; assay type: toxicity
compound,measurement,setting,value
C=Cc1onc(-c2ccc(OC)cc2)c1-c1ccc(OC)cc1,Activity,RPMI-8226 [1],0.37%
same,Activity,NCI-H929 [2],0.22%
same,Activity,NCI-H929 [3],16.9%
same,Activity,RPMI-8226 [4],inactive
same,viability at 0.042 µM,NCI-H929 [5],83%
same,Activity,NCI-H929 [6],inactive
same,IC50,[7],42 nM
same,Activity,RPMI-8226 [8],4%
same,"hemolysis at 3 h, 100 µM",[9],0%
same,Activity,RPMI-8226 [10],66%
same,viability at 0.042 µM,NCI-H929 [11],39.2%
same,IC50,[12],> 50000 nM
same,Activity,NCI-H929 [13],15%
same,Activity,NCI-H929 [14],15%
same,IC50,Platelet,630 nM
same,Activity,NCI-H929 [15],0.012%
same,Activity,RPMI-8226 [16],Active
same,Activity,RPMI-8226 [17],0.01%
same,Activity,[18],Non-Toxic
same,Activity,RPMI-8226 [19],9.68%
same,inhibition,[20],100%
same,Activity,[21],Non-Toxic
